Reference: the OPERA property sets (Mansouri et al. 2018)

| logP | Structure (SMILES) |
| --- | --- |
| 1.34 | CC(=O)Nc1ccccc1Br |
| 1.32 | CC(=O)Nc1c(Cl)cccc1Cl |
| 2.86 | CC(=O)Nc1ccc(Br)c(Cl)c1F |
| 1.07 | CC(=O)Nc1c(C)cccc1C |
| 1.82 | CC(=O)Nc1cc(Cl)ccc1C |
| 2.86 | COc1ccccc1Br |
| 1.91 | CC(=O)Nc1ccc(Cl)cc1F |
| 2.24 | CC(=O)Nc1cc(C(F)(F)F)ccc1F |
| 2.68 | COc1ccccc1Cl |
| 1.09 | COc1ccc(NC(C)=O)c([N+](=O)[O-])c1 |
| 2.03 | CC(=O)Nc1ccc(Br)cc1C |
| 3.3 | CCCCc1ccc(NC(C)=O)cc1 |
| 1.22 | CC(=O)Nc1c(C)cccc1Cl |
| 3.39 | CCCCc1ccc(NC(C)=O)c(Br)c1 |
| 1.49 | CC(=O)Nc1ccc(C)cc1[N+](=O)[O-] |
| 1.7 | CC(=O)Nc1ccc(C)cc1 |
| 2.14 | COc1ccccc1F |
| 2.27 | CCc1cc(Br)ccc1NC(C)=O |
| 1.65 | CC(=O)Nc1cccc(F)c1 |
| 1.28 | COc1c(C)cccc1NC(C)=O |
| 2.02 | COc1cc(Br)ccc1NC(C)=O |

| logP | Structure (SMILES) |
| --- | --- |
| 2.72 | CCCc1cc(NC(C)=O)ccc1OC |
| 1.76 | CC(=O)Nc1ccc(C)c(C)c1C |
| 0.69 | CC(=O)Nc1c(F)cccc1F |
| 1.03 | CC(=O)Nc1ccccc1F |
| 2.31 | CC(=O)Nc1cccc(Br)c1 |
| 1.32 | CCc1ccccc1NC(C)=O |
| 1.83 | CC(=O)Nc1cccc(Cl)c1F |
| 2.69 | CC(=O)Nc1ccc(Br)c(Cl)c1C |
| 2.37 | CC(=O)Nc1ccccc1Oc1ccccc1 |
| 2.18 | CC(=O)Nc1ccc(Cl)cc1Cl |
| 1.62 | CC(=O)Nc1ccccc1I |
| 1.68 | COc1c(Cl)cccc1NC(C)=O |
| 2.2 | CCc1ccc(NC(C)=O)cc1 |
| 1.13 | COc1cccc(NC(C)=O)c1C |
| 1.41 | CCc1cccc(C)c1NC(C)=O |
| 2.24 | CC(=O)Nc1cc(C(F)(F)F)ccc1Cl |
| 1.78 | CC(=O)Nc1ccc(Cl)cc1[N+](=O)[O-] |
| 2.62 | CC(=O)Nc1ccc(OC(F)(F)F)cc1 |
| 1.46 | CC(=O)Nc1ccc(C)cc1C |
| 2.19 | CC(=O)Nc1cc(Cl)ccc1Cl |
| 0.76 | Cc1ccccc1C(N)=O |

| logP | Structure (SMILES) |
| --- | --- |
| 2.09 | CC(=O)Nc1cccc(Cl)c1Cl |
| 1.53 | CC(=O)Nc1c(Br)cccc1Br |
| 2.88 | CC(=O)Nc1ccc(Cl)c(Cl)c1Cl |
| 1.57 | CC(=O)Nc1ccc(Oc2ccccn2)cc1 |
| 1.35 | CC(=O)Nc1cccc(C)c1C |
| 0.71 | COc1ccccc1C(=O)N(C)C |
| 1.47 | CC(=O)Nc1cccc([N+](=O)[O-])c1 |
| 1.82 | CC(=O)Nc1cccc(Cl)c1C |
| 1.17 | CC(=O)Nc1ccccc1C(F)(F)F |
| 2.15 | CC(=O)Nc1cccc(Cl)c1 |
| 3.1 | CCCCc1ccc(NC(C)=O)c(C)c1 |
| 3.18 | CCc1ccccc1OC |
| 1.47 | CC(=O)Nc1cc(C)ccc1C |
| 2.73 | CC(=O)Nc1ccc(Br)c(C)c1Cl |
| 0.01 | CC(=O)Nc1ccc(C(N)=O)cc1 |
| 0.64 | NC(=O)c1ccccc1Cl |
| 2.02 | CC(=O)Nc1ccccc1-c1ccccc1 |
| 1.98 | CC(=O)Nc1ccc(Cl)cc1C(F)(F)F |
| 1.3 | COc1cccc(NC(C)=O)c1 |
| 1.81 | COc1ccc(NC(C)=O)cc1Cl |

The remaining lines, values behind:

| Structure (SMILES) | logP |
| --- | --- |
| NC(=O)c1c(Cl)cccc1[N+](=O)[O-] | 0.12 |
| NC(=O)c1c(Cl)cccc1Br | 1 |
| CC(=O)Nc1ccc(C)c(C)c1 | 2.1 |
| COc1cccc(OC)c1C | 2.87 |
| CC(=O)Nc1cc(Br)cc(C(F)(F)F)c1Cl | 3.41 |
| CC(=O)Nc1cc(Cl)cc(Cl)c1 | 3.17 |
| CC(C)c1ccccc1C(N)=O | 1.39 |
| NC(=O)c1c(F)cccc1Cl | 0.49 |
| COc1ccc(C)c(OC)c1 | 2.76 |
| CC(=O)Nc1cc(Cl)cc(C(F)(F)F)c1F | 3.15 |
| Cc1cccc([N+](=O)[O-])c1C(N)=O | 0.1 |
| NC(=O)c1ccccc1Br | 0.77 |
| CC(=O)Nc1cc(C)c(C)c(C)c1 | 2.5 |
| COc1ccc(OC)c(Cl)c1 | 2.69 |
| CC(=O)Nc1c(F)ccc(C(F)(F)F)c1Br | 2.22 |
| CC(=O)Nc1cc(F)cc(C(F)(F)F)c1Cl | 2.86 |
| CC(=O)Nc1cc(C(F)(F)F)cc(C(F)(F)F)c1 | 3.72 |
| CC(=O)Nc1cc(C)c(O)cc1C | 0.6 |
| NC(=O)c1c(Cl)cccc1Cl | 0.77 |
| NC(=O)c1c(F)cccc1F | 0.25 |
| CCCCc1ccc(NC(C)=O)c([N+](=O)[O-])c1 | 3.1 |
| CC(=O)Nc1cc(C(F)(F)F)c(Cl)cc1Cl | 3.24 |
| NC(=O)c1c(Br)cccc1Br | 1 |
| O=[N+]([O-])c1ccc(Cl)cc1[N+](=O)[O-] | 2.18 |
| COc1cccc([N+](=O)[O-])c1C(N)=O | -0.26 |

| Structure (SMILES) | logP |
| --- | --- |
| CCc1cccc(C(C)C)c1NC(C)=O | 2.1 |
| Cc1cccc(C)c1C(N)=O | 0.9 |
| CC(C)(C)c1ccc(C(N)=O)cc1 | 2.51 |
| CCCCc1ccc(NC(C)=O)cc1C | 3.64 |
| COc1cccc(OC)c1C(N)=O | -0.22 |
| CC(=O)Nc1cc(Cl)c(Cl)c(Cl)c1 | 3.76 |
| CC(=O)Nc1c([N+](=O)[O-])cccc1[N+](=O)[O-] | 0.56 |
| Cc1cccc(Cl)c1C(N)=O | 0.89 |
| N#Cc1ccc(C(N)=O)cc1 | 0.48 |
| CC(=O)Nc1c(C)cc(C)cc1[N+](=O)[O-] | 1.18 |
| CC(C)c1ccccc1[N+](=O)[O-] | 3.34 |
| CC(=O)Nc1cc(C)c(Br)c(C)c1 | 3.28 |
| C=CCOc1cc(NC(C)=O)c(F)cc1Cl | 2.76 |
| CC(=O)Nc1ccc(Br)c(C)c1 | 2.8 |
| CC(=O)Nc1cc(C)cc(C)c1 | 2.17 |
| CC(=O)Nc1cc(OC(F)(F)F)c(Cl)cc1Cl | 3.71 |
| CC(=O)Nc1cc(Cl)cc(C(F)(F)F)c1Cl | 3.27 |
| CC(=O)Nc1cc(C(F)(F)F)c(Cl)cc1F | 3.02 |
| COc1cccc([N+](=O)[O-])c1C | 2.68 |
| COc1cccc(Cl)c1C(N)=O | 0.59 |
| CC(=O)Nc1ccc(Cl)c(Cl)c1 | 3 |
| NC(=O)c1ccccc1C(F)(F)F | 0.68 |
| CC(=O)Nc1c(C(C)C)cccc1C(C)C | 2.41 |
| O=[N+]([O-])c1cc(C(F)(F)F)cc([N+](=O)[O-])c1Cl | 2.5 |
| CC(=O)Nc1cc([N+](=O)[O-])c(Br)cc1F | 2.11 |

| Structure (SMILES) | logP |
| --- | --- |
| NC(=O)c1c(Br)cccc1[N+](=O)[O-] | 0.28 |
| CC(=O)Nc1cc(Cl)cc(C(F)(F)F)c1Br | 3.26 |
| CC(=O)Nc1cc(C(F)(F)F)c(F)cc1F | 2.34 |
| CC(=O)Nc1cc(C(F)(F)F)cc(Cl)c1Cl | 3.27 |
| NC(=O)c1ccccc1F | 0.59 |
| N#Cc1ccccc1[N+](=O)[O-] | 1.02 |
| CC(=O)Nc1ccc(Cl)c(C(F)(F)F)c1 | 3.33 |
| CC(=O)Nc1c(C)cc(Br)cc1C | 2.12 |
| CC(=O)Nc1c(F)c(F)c(F)c(F)c1F | 1.7 |
| CC(=O)Nc1cc(Cl)cc(Cl)c1Br | 3.04 |
| NC(=O)c1c(F)cccc1Br | 0.63 |
| CCOc1ccc(C(N)=O)cc1 | 1.3 |
| CCc1cccc(CC)c1NC(C)=O | 1.85 |
| N#Cc1cccc(C(N)=O)c1 | 0.52 |
| CC(=O)Nc1cc(Cl)c(F)c(Cl)c1F | 2.9 |
| CCc1ccccc1C(N)=O | 1.17 |
| CC(=O)Nc1ccc(C)c(Cl)c1 | 2.69 |
| CC(=O)Nc1cc(C(F)(F)F)c(Br)cc1F | 3.17 |
| N#Cc1ccccc1C#N | 0.99 |
| NC(=O)c1ccccc1I | 0.93 |
| CCc1cc(NC(C)=O)ccc1Br | 3.33 |
| COc1cccc(OC)c1 | 2.21 |
| CC(=O)Nc1c(C)cccc1[N+](=O)[O-] | 0.61 |
